Data as given in PubChem BioAssay AID330 (DTP/NCI, 2004).
“And” between values parts separate entries of the source, which are not always exact repeats. Equal entries are not always repeated. Inconclusive results and toxic doses are left out.

Tested on: P388 leukemia ip, CD2F1 mice, survival T/C
Test: NCI In Vivo Anticancer Drug Screen. Data for tumor model P388 Leukemia (intraperitoneal) in CD2F1 (CDF1) mice
Conditions: endpoint: median survival time, higher = longer survival
Summary of the method: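 Mice carrying the transplanted tumor received test compound or vehicle. Survival was recorded in each group, and the value is the treated-group measurement divided by that of the vehicle-treated control group.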

[1] = dose: 50.0 mg/kg/injection, schedule: Q01DX005 (ip), vehicle: Klucel (hydroxypropylcellulose) (HPC)
[2] = dose: 100.0 mg/kg/injection, schedule: Q01DX005 (ip), vehicle: Klucel (hydroxypropylcellulose) (HPC)
[3] = dose: 200.0 mg/kg/injection, schedule: Q01DX005 (ip), vehicle: Klucel (hydroxypropylcellulose) (HPC)
[4] = dose: 50.0 mg/kg/injection, schedule: Q01DX005 (ip), vehicle: saline with Tween-80
[5] = dose: 100.0 mg/kg/injection, schedule: Q01DX005 (ip), vehicle: saline with Tween-80
[6] = dose: 200.0 mg/kg/injection, schedule: Q01DX001 (ip), vehicle: saline with Tween-80
[7] = dose: 400.0 mg/kg/injection, schedule: Q01DX001 (ip), vehicle: saline with Tween-80
[8] = dose: 50.0 mg/kg/injection, schedule: Q01DX009 (ip), vehicle: saline with Tween-80
[9] = dose: 100.0 mg/kg/injection, schedule: Q01DX009 (ip), vehicle: saline with Tween-80
[10] = dose: 200.0 mg/kg/injection, schedule: Q01DX009 (ip), vehicle: saline with Tween-80
[11] = dose: 50.0 mg/kg/injection, schedule: Q04DX002 (ip), vehicle: saline with Tween-80
[12] = dose: 100.0 mg/kg/injection, schedule: Q04DX002 (ip), vehicle: saline with Tween-80
[13] = dose: 100.0 mg/kg/injection, schedule: Q04DX003 (ip), vehicle: saline
[14] = dose: 200.0 mg/kg/injection, schedule: Q04DX003 (ip), vehicle: saline
[15] = dose: 25.0 mg/kg/injection, schedule: Q01DX009 (ip), vehicle: saline with Tween-80
[16] = dose: 60.0 mg/kg/injection, schedule: Q01DX005 (ip), vehicle: saline with Tween-80
[17] = dose: 120.0 mg/kg/injection, schedule: Q01DX005 (ip), vehicle: saline with Tween-80
[18] = dose: 100.0 mg/kg/injection, schedule: Q04DX003 (ip), vehicle: saline with Tween-80
[19] = dose: 200.0 mg/kg/injection, schedule: Q04DX003 (ip), vehicle: saline with Tween-80
[20] = dose: 100.0 mg/kg/injection, schedule: Q01DX001 (ip), vehicle: saline with Tween-80
[21] = dose: 200.0 mg/kg/injection, schedule: Q04DX002 (ip), vehicle: saline with Tween-80
[22] = dose: 400.0 mg/kg/injection, schedule: Q04DX002 (ip), vehicle: saline with Tween-80

SMILES: O=C1C(c2ccccn2)=C(O)c2ccccc21
- T/C [1]: 104 % of control
- T/C [2]: 93 % of control
- T/C [3]: 97 % of control

SMILES: O=C(N/N=C\c1c(O)ccc2ccccc12)c1ccncc1
- T/C [4]: 104 % of control
- T/C [5]: 105 % of control

SMILES: Cc1cccc(N=Nc2c(-c3ccccc3)nn(C(=S)S)c2C)c1C
- T/C (dose: 12.5 mg/kg/injection, schedule: Q01DX001 (ip), vehicle: saline with Tween-80): 100 % of control
- T/C (dose: 25.0 mg/kg/injection, schedule: Q01DX001 (ip), vehicle: saline with Tween-80): 96 % of control
- T/C (dose: 50.0 mg/kg/injection, schedule: Q01DX001 (ip), vehicle: saline with Tween-80): 96 % of control
- T/C [6]: 91 % of control
- T/C [7]: 99 % of control

SMILES: CCCCCCCCCCCC(=O)N(CCOC(=O)c1ccccc1)CCOC(=O)c1ccccc1
- T/C [8]: 101 % of control
- T/C [9]: 93 % of control
- T/C [10]: 107 % of control

SMILES: Cc1cccc(C)c1NC(=O)C1C(=O)C(=O)N(c2c(C)cccc2C)C1=O (configuration not stated)
- T/C (dose: 25.0 mg/kg/injection, schedule: Q04DX002 (ip), vehicle: saline with Tween-80): 100 % of control
- T/C [11]: 101 % of control
- T/C [12]: 98 % of control and 100 % of control

SMILES: C1CCCC2(CC1)OCCO2
- T/C [13]: 101 % of control
- T/C [14]: 97 % of control
- T/C (dose: 400.0 mg/kg/injection, schedule: Q04DX003 (ip), vehicle: saline): 98 % of control

SMILES: CCCN1COC(OCC)C(C)(C)C1 (configuration not stated)
- T/C [15]: 110 % of control
- T/C [10]: 93 % of control

SMILES: COc1cccc2c1C(=O)c1c(O)c3c(c(O)c1C2=O)C[C@@](O)(C(C)=O)C[C@@H]3OC1CC(NC=O)C(O)C(C)O1 (some centres not stated)
- T/C (dose: 1.56 mg/kg/injection, schedule: Q01DX009 (ip), vehicle: saline): 117 % of control
- T/C (dose: 3.13 mg/kg/injection, schedule: Q01DX009 (ip), vehicle: saline): 119 % of control
- T/C (dose: 50.0 mg/kg/injection, schedule: Q01DX009 (ip), vehicle: saline): 153 % of control
- T/C (dose: 100.0 mg/kg/injection, schedule: Q01DX009 (ip), vehicle: saline): 155 % of control

SMILES: O=C1CCC(C(=O)N(C(=O)NC2CCCCC2)C2CCCCC2)Cc2ccccc21 (configuration not stated)
- T/C (dose: 60.0 mg/kg/injection, schedule: Q01DX005 (ip), vehicle: Klucel (hydroxypropylcellulose) (HPC)): 98 % of control
- T/C (dose: 120.0 mg/kg/injection, schedule: Q01DX005 (ip), vehicle: Klucel (hydroxypropylcellulose) (HPC)): 92 % of control
- T/C (dose: 240.0 mg/kg/injection, schedule: Q01DX005 (ip), vehicle: Klucel (hydroxypropylcellulose) (HPC)): 90 % of control

SMILES: COc1ccc(OC)c2c(Cl)cc(N(C)C)nc12
- T/C [16]: 99 % of control
- T/C [17]: 97 % of control

SMILES: CC(=O)OCC1OC(n2nc(/C=C/c3ccccc3)c(=O)n(-c3ccccc3)c2=S)C(OC(C)=O)C(OC(C)=O)C1OC(C)=O (configuration not stated)
- T/C [18]: 103 % of control
- T/C [19]: 101 % of control
- T/C (dose: 400.0 mg/kg/injection, schedule: Q04DX003 (ip), vehicle: saline with Tween-80): 110 % of control

SMILES: O=C1C=C(SCCCC(=O)N2CCOCC2)C(=O)c2ccccc21
- T/C (dose: 6.25 mg/kg/injection, schedule: Q04DX003 (ip), vehicle: Klucel (hydroxypropylcellulose) (HPC)): 107 % of control
- T/C (dose: 12.5 mg/kg/injection, schedule: Q04DX003 (ip), vehicle: Klucel (hydroxypropylcellulose) (HPC)): 104 % of control

SMILES: COc1ccc2c(c1OC)C(=O)O/C2=C/c1c(CCN(C)C)cc2c(c1O)OCO2
- T/C (dose: 53.0 micrograms/kg/injection, schedule: Q01DX005 (ip), vehicle: Klucel (hydroxypropylcellulose) (HPC)): 104 % of control
- T/C (dose: 105.0 micrograms/kg/injection, schedule: Q01DX005 (ip), vehicle: Klucel (hydroxypropylcellulose) (HPC)): 91 % of control
- T/C (dose: 210.0 micrograms/kg/injection, schedule: Q01DX005 (ip), vehicle: Klucel (hydroxypropylcellulose) (HPC)): 96 % of control
- T/C (dose: 420.0 micrograms/kg/injection, schedule: Q01DX005 (ip), vehicle: Klucel (hydroxypropylcellulose) (HPC)): 102 % of control

SMILES: CNC(=S)N/N=C/c1nc2ccccc2c(=O)n1-c1ccc(Cl)cc1
- T/C [20]: 102 % of control
- T/C [6]: 98 % of control
- T/C [7]: 92 % of control

SMILES: Cc1cc(O)c(C=O)c2c1C(=O)Oc1c(CO)c(O)c3c(c1O2)C(O)OC3=O (configuration not stated)
- T/C [8]: 124 % of control

SMILES: CC(=O)/C(C=NC1CC(N=C/C(C(C)=O)=C(/C)O)CC(N=C/C(C(C)=O)=C(/C)O)C1)=C(/C)O (configuration not stated)
- T/C [8]: 101 % of control
- T/C [9]: 101 % of control
- T/C [10]: 93 % of control

SMILES: CCn1c2ccccc2c2cc(N=Nc3ccc(N)nc3N)ccc21
- T/C [4]: 94 % of control
- T/C [5]: 94 % of control
- T/C (dose: 200.0 mg/kg/injection, schedule: Q01DX005 (ip), vehicle: saline with Tween-80): 96 % of control

SMILES: CC(=O)c1c(O)c2c(=O)n(C)c(C)cc2n(C)c1=O
- T/C [1]: 100 % of control
- T/C [2]: 100 % of control
- T/C [3]: 98 % of control

SMILES: c1ccc2c(c1)nc1snc(-n3ccnc3)n12
- T/C (dose: 50.0 mg/kg/injection, schedule: Q04DX003 (ip), vehicle: saline with Tween-80): 103 % of control
- T/C [18]: 111 % of control
- T/C [19]: 90 % of control

SMILES: CCN(CC)C(Cc1ccccc1)=NC(C)(C)C
- T/C [8]: 94 % of control
- T/C [9]: 88 % of control

SMILES: CS(=O)(=O)C(c1nc2nnc(N)n2[nH]c1=O)c1nc2nnc(N)n2[nH]c1=O
- T/C (dose: 60.0 mg/kg/injection, schedule: Q01DX005 (ip), vehicle: saline): 99 % of control
- T/C (dose: 120.0 mg/kg/injection, schedule: Q01DX005 (ip), vehicle: saline): 105 % of control
- T/C (dose: 240.0 mg/kg/injection, schedule: Q01DX005 (ip), vehicle: saline): 105 % of control

SMILES: CC(CN)OC12CC3CC(CC(C3)C1)C2 (configuration not stated)
- T/C [16]: 100 % of control
- T/C [17]: 99 % of control

SMILES: CCOC(=O)N1CCC23C=C(OC)C(=O)C=C2C1Cc1ccc(OC)c(O)c13 (configuration not stated)
- T/C [12]: 100 % of control
- T/C [21]: 105 % of control
- T/C [22]: 93 % of control

SMILES: C=C=CCC(=O)N1CCCC1
- T/C [11]: 99 % of control
- T/C [12]: 101 % of control
- T/C [21]: 104 % of control

SMILES: COc1ccc(NS(=O)(=O)c2ccc(NCc3c4ccccc4nc4cc(Cl)ccc34)cc2)nn1
- T/C [16]: 98 % of control
- T/C [17]: 94 % of control
- T/C (dose: 240.0 mg/kg/injection, schedule: Q01DX005 (ip), vehicle: saline with Tween-80): 94 % of control

SMILES: C=C1CC2(CCC3(C)C(CCC4C5CCC(=O)C5(C)CCC43)C2)OC1=O (configuration not stated)
- T/C [12]: 95 % of control
- T/C [21]: 93 % of control
- T/C [22]: 96 % of control

SMILES: O=C1c2ccccc2-c2nc3cncnc3nc21 (tested in a mixture with another compound)
- T/C (dose: 50.0 mg/kg/injection, schedule: Q04DX003 (ip), vehicle: saline): 109 % of control
- T/C [13]: 109 % of control
- T/C [14]: 104 % of control

SMILES: OC(c1cc(-c2cccc(Cl)c2)nc2ccccc12)C1CCCCN1 (configuration not stated)
- T/C [1]: 112 % of control
- T/C [2]: 107 % of control

SMILES: CCC(O)C1(OC)C=CC(OC)O1 (configuration not stated)
- T/C (dose: 3.12 mg/kg/injection, schedule: Q01DX005 (ip), vehicle: saline): 100 % of control
- T/C (dose: 6.25 mg/kg/injection, schedule: Q01DX005 (ip), vehicle: saline): 97 % of control
- T/C (dose: 12.5 mg/kg/injection, schedule: Q01DX005 (ip), vehicle: saline): 101 % of control

SMILES: Cc1ncc(N)c(C(=O)O)n1
- T/C [1]: 98 % of control
- T/C [2]: 98 % of control

SMILES: COc1ccc2nccc(C(C)=O)c2c1
- T/C [1]: 100 % of control
- T/C [2]: 98 % of control
- T/C [3]: 106 % of control

SMILES: c1ccc(CN2CCCC3CCCC32)cc1 (configuration not stated)
- T/C [20]: 97 % of control

SMILES: CC(c1ccccc1)N1C(=O)CSC1=S (configuration not stated)
- T/C [15]: 100 % of control
- T/C [8]: 100 % of control
- T/C [9]: 100 % of control
- T/C [10]: 100 % of control

SMILES: Nc1nc(N)nc(N)n1 (tested in a mixture with another compound)
- T/C [8]: 98 % of control
- T/C [9]: 92 % of control
- T/C [10]: 88 % of control

SMILES: Cc1ccc(C=C(C#N)C#N)o1
- T/C [16]: 102 % of control
- T/C [17]: 105 % of control
